The results in this text go back to patent publication US7915293B2, “Ubiquitin ligase inhibitors” (Rigel Pharmaceuticals, Inc., priority 2003, dated 2011).

Sequence of E3 (His-APC11/APC2-"APC") (Q9NYG5 whole entry): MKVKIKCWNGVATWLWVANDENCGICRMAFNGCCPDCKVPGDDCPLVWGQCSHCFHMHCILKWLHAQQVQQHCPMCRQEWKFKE
Sequence of E3 (His-APC11/APC2-"APC") (Q9UJX6 whole entry): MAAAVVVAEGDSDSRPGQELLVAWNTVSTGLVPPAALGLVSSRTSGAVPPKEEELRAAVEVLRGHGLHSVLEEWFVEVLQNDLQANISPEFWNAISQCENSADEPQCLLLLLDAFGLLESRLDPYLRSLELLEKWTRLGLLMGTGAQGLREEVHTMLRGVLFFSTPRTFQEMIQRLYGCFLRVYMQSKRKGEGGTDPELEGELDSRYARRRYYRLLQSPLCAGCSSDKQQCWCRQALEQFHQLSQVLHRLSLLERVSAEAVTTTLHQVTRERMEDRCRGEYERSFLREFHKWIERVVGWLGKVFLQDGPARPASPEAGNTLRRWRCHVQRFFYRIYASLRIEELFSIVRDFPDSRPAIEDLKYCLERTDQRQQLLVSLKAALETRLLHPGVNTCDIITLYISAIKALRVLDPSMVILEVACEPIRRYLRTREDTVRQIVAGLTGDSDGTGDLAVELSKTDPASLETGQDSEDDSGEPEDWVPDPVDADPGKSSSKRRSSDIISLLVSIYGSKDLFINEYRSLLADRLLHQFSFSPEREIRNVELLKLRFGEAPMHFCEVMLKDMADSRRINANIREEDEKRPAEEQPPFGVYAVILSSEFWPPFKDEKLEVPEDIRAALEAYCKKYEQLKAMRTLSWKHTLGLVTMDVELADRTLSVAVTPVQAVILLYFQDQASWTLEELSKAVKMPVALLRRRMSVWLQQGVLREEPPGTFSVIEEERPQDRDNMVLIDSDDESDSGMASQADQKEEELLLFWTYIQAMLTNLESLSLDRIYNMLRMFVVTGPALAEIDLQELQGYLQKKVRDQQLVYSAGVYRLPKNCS

The first test concerns the target E3 (His-APC11/APC2-"APC") (Homo sapiens, UniProt Q9NYG5+Q9UJX6). Description: Plate-based E3 ligase assay (APC FLAG), auto-ubiquitination. The class given is biochemical. Further details: key: “+” indicates that the compound exibits inhibitory activity; “−” indicates that low or no inhibitory activity was observed. As to conditions: 2 concentrations tested. How it is done:
E3 (His-APC11/APC2-“APC”) auto-ubiquitination was measured as described in U.S. patent application Ser. No. 09/826,312 (Publication No. US-2002-0042083-A1), which is incorporated herein in its entirety. Details of the protocol are described below. Activity in the presence of the compound was determined relative to a parallel control in which only DMSO was added. Values of the IC50 were typically determined using 6 or 8 different concentrations of the compound, although as few as 2 concentrations may be used to approximate the IC50 value.
Nickel-coated 96-well plates (Pierce 15242) were blocked for 1 hour with 100 μl of blocking buffer at room temperature. The plates were washed 4 times with 225 μl of 1×PBS and 80 μl of the reaction buffer were added that contained 100 ng/well of Flag-ubiquitin. To this, 10 μl of the test compound diluted in DMSO were added. After the test compound was added, 10 μl of E1 (human), E2 (Ubch5c), and APC in Protein Buffer was added to obtain a final concentration of 5 ng/well of E1, 20 ng/well of E2 and 100 ng/well of APC. The plate were shaken for 10 minutes and incubated at room temperature for 1 hour. After incubation, the plates were washed 4 times with 225 μl of 1×PBS and 100 μl/well of Antibody Mix were added to each well. The plates were incubate at room temperature for another hour after which they were washed 4 times with 225 μl of 1×PBS and 100 μl/well of Lumino substrate were added to each well. The luminescence was measured by using a BMG luminescence microplate reader.
To prepare the Blocking Buffer (1 liter; 1% Casein in 1×PBS), 10 grams of Casein (Hammersten Grade Casein from Gallard-Schlesinger Inc. #440203) were placed into 1 liter of 1×PBS, stirred on a hot plate and kept between 50-60° C. for an hour. The buffer was allowed to cool to room temperature and then filtered using a Buchner Funnel (Buchner filter funnel 83 mm 30310-109) and Whatman filter paper (Whatman Grade No. 1 Filter paper 28450-070). It was stored at 4° C. until used.
The reaction buffer consisted of 62.5 mM Tris pH 7.6 (Trizma Base—Sigma T-8524), 3 mM MgCl2 (Magnesium Chloride—Sigma M-2393), 1 mM DTT (Sigma D-9779), 2.5 mM ATP (Roche Boehringer Mann Corp. 635-316), 100 ng/well of Flag-ubiquitin, 0.1% BSA (Sigma A-7906), and 0.05% Tween-20 (Sigma P-7949).
The Protein Buffer consisted of 20 mM Tris pH 7.6, 10% glycerol (Sigma G-5516) and 1 mM DTT.
The antibody mix consisted of 0.25% BSA (Sigma A-7906) in 1×PBS, 1/50,000 anti-Flag (Sigma F-3165), 1/100,000 of anti-Mouse IgG-HRP (Jackson Immunoresearch #115-035-146).
The substrate mix consisted of SuperSignal Substrate from Pierce (catalog number 37070ZZ) and was prepared by mixing 100 ml of the peroxide solution, 100 ml of the enhancer solution and 100 ml of Milli-Q® water.
As to `CC(=O)c1cccc(NS(=O)(=O)c2cc(Cl)c(Oc3ccc([N+](=O)[O-])cc3Cl)c(Cl)c2)c1` [Example 186, N-(3-acetylphenyl)-3,5-dichloro-4-(2-chloro-4-nitrophenoxy)benzenesulfonamide], the “APC Flag (2 pt)” value is given as “− (2 pt)”. With `O=S(=O)(Nc1cccc(Br)c1)c1ccc(Oc2ccc(F)cc2)cc1` [Example 187, N-(3-bromophenyl)-4-(4-fluorophenoxy) benzenesulfonamide], the “APC Flag (2 pt)” value was “− (2 pt)”.

The same test, now with this note: 8 concentrations tested.
`Cc1ccc(N(S(=O)(=O)c2cc(Cl)c(Oc3ccc([N+](=O)[O-])cc3Cl)c(Cl)c2)S(=O)(=O)c2cc(Cl)c(Oc3ccc([N+](=O)[O-])cc3Cl)c(Cl)c2)cc1` [Example 137, 3,5-dichloro-4-(2-chloro-4-nitrophenoxy)-N-(4-methylphenyl)-N-(1,3-dichloro-2-(2-chloro-4-nitrophenoxy)-5-sulfonylbenzene) benzenesulfonamide]: the “APC Flag 8 pt” value was “+”. Same read-out and setting: the same measure for `O=[N+]([O-])c1ccc(N(S(=O)(=O)c2cc(Cl)c(Oc3ccc([N+](=O)[O-])cc3Cl)c(Cl)c2)S(=O)(=O)c2cc(Cl)c(Oc3ccc([N+](=O)[O-])cc3Cl)c(Cl)c2)cc1` [Example 138, 3,5-dichloro-4-(2-chloro-4-nitrophenoxy)-N-(1,3-dichloro-2-(2-chloro-4-nitrophenoxy)-5-sulfonylbenzene)-N-(4-nitrophenyl) benzenesulfonamide]: “+”; for `N=C(N)NCCC[C@H](NS(=O)(=O)c1cc(Cl)c(Oc2ccc([N+](=O)[O-])cc2Cl)c(Cl)c1)C(N)=O` [Example 141, N^2-{[3,5-dichloro-4-(2-chloro-4-nitrophenoxy)phenyl]sulfonyl}argininamide]: “−”. With `Cc1cc(C)c(N(S(=O)(=O)c2cc(Cl)c(Oc3ccc([N+](=O)[O-])cc3Cl)c(Cl)c2)S(=O)(=O)c2cc(Cl)c(Oc3ccc([N+](=O)[O-])cc3Cl)c(Cl)c2)c(C)c1` [Example 142, 3,5-dichloro-4-(2-chloro-4-nitrophenoxy)-N-mesityl-N-(1,3-dichloro-2-(2-chloro-4-nitrophenoxy)-5-sulfonylbenzene)benzene-sulfonamide], the “APC Flag 8 pt” value is on record as “+”. Same read-out and setting: the same measure for `Cc1c(Cl)cccc1N(S(=O)(=O)c1cc(Cl)c(Oc2ccc([N+](=O)[O-])cc2Cl)c(Cl)c1)S(=O)(=O)c1cc(Cl)c(Oc2ccc([N+](=O)[O-])cc2Cl)c(Cl)c1` [Example 143, 3,5-dichloro-N-(3-chloro-2-methylphenyl)-4-(2-chloro-4-nitrophenoxy)-N-(1,3-dichloro-2-(2-chloro-4-nitrophenoxy)-5-sulfonylbenzene)benzenesulfonamide]: “+”; for `Cc1cc(C)c(NS(=O)(=O)c2cc(Cl)c(Oc3ccc([N+](=O)[O-])cc3Cl)c(Cl)c2)c(C)c1` [Example 144, 3,5-dichloro-4-(2-chloro-4-nitrophenoxy)-N-mesitylbenzenesulfonamide]: “+”; for `O=C(NCC1CC1)c1ccc(NS(=O)(=O)c2cc(Cl)c(Oc3ccc([N+](=O)[O-])cc3Cl)c(Cl)c2)cc1` [Example 152, N-(cyclopropylmethyl)-4-({[3,5-dichloro-4-(2-chloro-4-nitrophenoxy)phenyl]sulfonyl}amino)benzamide]: “+”. Take `COc1ccc(NS(=O)(=O)c2cc(Cl)c(Oc3ccc([N+](=O)[O-])cc3Cl)c(Cl)c2)c(OC)c1OC` [Example 157, 3,5-dichloro-4-(2-chloro-4-nitrophenoxy)-N-(2,3,4-trimethoxyphenyl)benzenesulfonamide]: the “APC Flag 8 pt” value is “+”. On the same count and under the same terms, the same measure for `O=[N+]([O-])c1ccc(Oc2c(Cl)cc(S(=O)(=O)NC(=S)Nc3cccnc3)cc2Cl)c(Cl)c1` [Example 158, 3,5-dichloro-4-(2-chloro-4-nitrophenoxy)-N-[(pyridin-3-ylamino)carbonothioyl] benzenesulfonamide]: “−”; for `Cc1cccc(NS(=O)(=O)c2cc(Cl)c(Oc3ccc([N+](=O)[O-])cc3Cl)c(Cl)c2)c1` [Example 161, 3,5-dichloro-4-(2-chloro-4-nitrophenoxy)-N-(3-methylphenyl)benzenesulfonamide]: “+”. `O=[N+]([O-])c1ccc(Oc2c(Cl)cc(S(=O)(=O)Nc3ccc4c(c3)OCO4)cc2Cl)c(Cl)c1` [Example 162, N-1,3-benzodioxol-5-yl-3,5-dichloro-4-(2-chloro-4-nitrophenoxy)benzenesulfonamide]: the “APC Flag 8 pt” value is recorded as “+”.

Regarding `COc1cccc(NS(=O)(=O)c2cc(Cl)c(Oc3ccc([N+](=O)[O-])cc3Cl)c(Cl)c2)c1` [Example 163, 3,5-dichloro-4-(2-chloro-4-nitrophenoxy)-N-(3-methoxyphenyl)benzenesulfonamide], the “APC Flag 8 pt” value was “+”. For the compound `N#Cc1cccc(NS(=O)(=O)c2cc(Cl)c(Oc3ccc([N+](=O)[O-])cc3Cl)c(Cl)c2)c1` [Example 169, 3,5-dichloro-4-(2-chloro-4-nitrophenoxy)-N-(3-cyanophenyl)benzenesulfonamide], the “APC Flag 8 pt” value was “+”. On the same count and under the same terms, as for `O=[N+]([O-])c1ccc(Oc2c(Cl)cc(S(=O)(=O)Nc3ccc(Cl)cc3)cc2Cl)c(Cl)c1` [Example 176, 3,5-dichloro-4-(2-chloro-4-nitrophenoxy)-N-(4-chlorophenyl)benzenesulfonamide], the entry is “−”; as for `O=[N+]([O-])c1ccc(Oc2c(Cl)cc(S(=O)(=O)Nc3cc(F)cc(F)c3)cc2Cl)c(Cl)c1` [Example 177, 3,5-dichloro-4-(2-chloro-4-nitrophenoxy)-N-(3,5-difluorophenyl)benzenesulfonamide], “+”.

For `O=[N+]([O-])c1ccc(Oc2c(Cl)cc(S(=O)(=O)Nc3cccc(Cl)c3Cl)cc2Cl)c(Cl)c1` [Example 178, 3,5-dichloro-4-(2-chloro-4-nitrophenoxy)-N-(2,3-dichlorophenyl)benzenesulfonamide], the “APC Flag 8 pt” value is listed as “+”.

For `N#Cc1c(Cl)cccc1Oc1ccc(S(=O)(=O)Nc2cccc(Br)c2)cc1` [Example 180, N-(3-bromophenyl)-4-(3-chloro-2-cyano-phenoxy)benzenesulfonamide], the “APC Flag 8 pt” value was “−”. Turning to `Cc1c(Cl)cccc1NS(=O)(=O)c1ccc(Oc2cccc(Cl)c2C#N)cc1` [Example 181, 4-(3-chloro-2-cyanophenoxy)-N-(3-chloro-2-methylphenyl)benzenesulfonamide], the “APC Flag 8 pt” value is “−”.

For `N#Cc1c(Cl)cccc1Oc1ccc(S(=O)(=O)Nc2ccc(F)c(Cl)c2)cc1` [Example 182, 4-(3-chloro-2-cyanophenoxy)-N-(3-chloro-4-fluorophenyl)benzenesulfonamide], the “APC Flag 8 pt” value is listed as “−”.

On to `O=[N+]([O-])c1cccc(Cl)c1Oc1ccc(S(=O)(=O)Nc2cccc(Br)c2)cc1` [Example 183, N-(3-bromophenyl)-4-(2-chloro-6-nitro-phenoxy)benzenesulfonamide], for which the “APC Flag 8 pt” value is “−”. Still for that read-out and setting: the same measure for `Cc1c(Cl)cccc1NS(=O)(=O)c1ccc(Oc2c(Cl)cccc2[N+](=O)[O-])cc1` [Example 184, N-(3-chloro-2-methylphenyl)-4-(2-chloro-6-nitrophenoxy)benzenesulfonamide]: “−”; for `O=[N+]([O-])c1cccc(Cl)c1Oc1ccc(S(=O)(=O)Nc2ccc(F)c(Cl)c2)cc1` [Example 185, N-(3-chloro-4-fluorophenyl)-4-(2-chloro-6-nitrophenoxy)benzenesulfonamide]: “−”.
